Reference: the OligoGym collection
Oligonucleotides are given in HELM: sugar(base)linkage, 5' to 3'; d 2'-deoxyribose, r ribose, m 2'-O-methylribose, p phosphate. ss, as = sense and antisense strand

Molecular target: Mmp7 (rat)
Experiment: reporter assay of Huesken 2005
Settings: siRNA
Also: test concentration or dose not given here.

Substance	normalised inhibition (eCFP-eYFP dual reporter)
RNA1{r(A)p.r(C)p.r(A)p.r(G)p.r(G)p.r(C)p.r(G)p.r(C)p.r(A)p.r(G)p.r(A)p.r(A)p.r(U)p.r(U)p.r(A)p.r(U)p.r(C)p.r(U)p.r(U)p.d(T)p.d(T)}|RNA2{r(A)p.r(A)p.r(G)p.r(A)p.r(U)p.r(A)p.r(A)p.r(U)p.r(U)p.r(C)p.r(U)p.r(G)p.r(C)p.r(G)p.r(C)p.r(C)p.r(U)p.r(G)p.r(U)p.d(T)p.d(C)}$$$RNA1{StrandType:ss}|RNA2{StrandType:as}$	75.6%
RNA1{r(C)p.r(G)p.r(G)p.r(C)p.r(G)p.r(G)p.r(A)p.r(G)p.r(A)p.r(U)p.r(G)p.r(C)p.r(U)p.r(C)p.r(A)p.r(C)p.r(U)p.r(U)p.r(U)p.d(T)p.d(T)}|RNA2{r(A)p.r(A)p.r(A)p.r(G)p.r(U)p.r(G)p.r(A)p.r(G)p.r(C)p.r(A)p.r(U)p.r(C)p.r(U)p.r(C)p.r(C)p.r(G)p.r(C)p.r(C)p.r(G)p.d(A)p.d(G)}$$$RNA1{StrandType:ss}|RNA2{StrandType:as}$	118%
RNA1{r(U)p.r(A)p.r(C)p.r(U)p.r(G)p.r(G)p.r(A)p.r(C)p.r(G)p.r(G)p.r(A)p.r(U)p.r(G)p.r(G)p.r(U)p.r(G)p.r(A)p.r(G)p.r(G)p.d(T)p.d(T)}|RNA2{r(C)p.r(C)p.r(U)p.r(C)p.r(A)p.r(C)p.r(C)p.r(A)p.r(U)p.r(C)p.r(C)p.r(G)p.r(U)p.r(C)p.r(C)p.r(A)p.r(G)p.r(U)p.r(A)p.d(C)p.d(T)}$$$RNA1{StrandType:ss}|RNA2{StrandType:as}$	32.6%
RNA1{r(G)p.r(A)p.r(A)p.r(A)p.r(C)p.r(A)p.r(C)p.r(U)p.r(C)p.r(U)p.r(A)p.r(G)p.r(G)p.r(C)p.r(C)p.r(A)p.r(U)p.r(G)p.r(C)p.d(T)p.d(T)}|RNA2{r(G)p.r(C)p.r(A)p.r(U)p.r(G)p.r(G)p.r(C)p.r(C)p.r(U)p.r(A)p.r(G)p.r(A)p.r(G)p.r(U)p.r(G)p.r(U)p.r(U)p.r(U)p.r(C)p.d(C)p.d(T)}$$$RNA1{StrandType:ss}|RNA2{StrandType:as}$	53.7%
RNA1{r(C)p.r(C)p.r(A)p.r(G)p.r(G)p.r(A)p.r(A)p.r(A)p.r(C)p.r(A)p.r(C)p.r(U)p.r(C)p.r(U)p.r(A)p.r(G)p.r(G)p.r(C)p.r(C)p.d(T)p.d(T)}|RNA2{r(G)p.r(G)p.r(C)p.r(C)p.r(U)p.r(A)p.r(G)p.r(A)p.r(G)p.r(U)p.r(G)p.r(U)p.r(U)p.r(U)p.r(C)p.r(C)p.r(U)p.r(G)p.r(G)p.d(C)p.d(C)}$$$RNA1{StrandType:ss}|RNA2{StrandType:as}$	33.8%
RNA1{r(U)p.r(A)p.r(G)p.r(G)p.r(A)p.r(A)p.r(A)p.r(U)p.r(U)p.r(U)p.r(U)p.r(A)p.r(C)p.r(C)p.r(U)p.r(U)p.r(C)p.r(A)p.r(C)p.d(T)p.d(T)}|RNA2{r(G)p.r(U)p.r(G)p.r(A)p.r(A)p.r(G)p.r(G)p.r(U)p.r(A)p.r(A)p.r(A)p.r(A)p.r(U)p.r(U)p.r(U)p.r(C)p.r(C)p.r(U)p.r(A)p.d(A)p.d(G)}$$$RNA1{StrandType:ss}|RNA2{StrandType:as}$	86.2%
RNA1{r(G)p.r(C)p.r(C)p.r(A)p.r(C)p.r(U)p.r(G)p.r(U)p.r(C)p.r(C)p.r(C)p.r(A)p.r(G)p.r(G)p.r(A)p.r(A)p.r(G)p.r(C)p.r(C)p.d(T)p.d(T)}|RNA2{r(G)p.r(G)p.r(C)p.r(U)p.r(U)p.r(C)p.r(C)p.r(U)p.r(G)p.r(G)p.r(G)p.r(A)p.r(C)p.r(A)p.r(G)p.r(U)p.r(G)p.r(G)p.r(C)p.d(A)p.d(G)}$$$RNA1{StrandType:ss}|RNA2{StrandType:as}$	66%
RNA1{r(A)p.r(G)p.r(U)p.r(U)p.r(C)p.r(U)p.r(G)p.r(U)p.r(G)p.r(A)p.r(U)p.r(G)p.r(U)p.r(A)p.r(C)p.r(C)p.r(C)p.r(U)p.r(A)p.d(T)p.d(T)}|RNA2{r(U)p.r(A)p.r(G)p.r(G)p.r(G)p.r(U)p.r(A)p.r(C)p.r(A)p.r(U)p.r(C)p.r(A)p.r(C)p.r(A)p.r(G)p.r(A)p.r(A)p.r(C)p.r(U)p.d(G)p.d(G)}$$$RNA1{StrandType:ss}|RNA2{StrandType:as}$	116%
RNA1{r(G)p.r(C)p.r(U)p.r(G)p.r(C)p.r(C)p.r(U)p.r(G)p.r(G)p.r(C)p.r(C)p.r(C)p.r(U)p.r(G)p.r(C)p.r(C)p.r(A)p.r(C)p.r(U)p.d(T)p.d(T)}|RNA2{r(A)p.r(G)p.r(U)p.r(G)p.r(G)p.r(C)p.r(A)p.r(G)p.r(G)p.r(G)p.r(C)p.r(C)p.r(A)p.r(G)p.r(G)p.r(C)p.r(A)p.r(G)p.r(C)p.d(C)p.d(T)}$$$RNA1{StrandType:ss}|RNA2{StrandType:as}$	64.3%
RNA1{r(C)p.r(C)p.r(G)p.r(C)p.r(A)p.r(C)p.r(U)p.r(U)p.r(C)p.r(A)p.r(G)p.r(U)p.r(G)p.r(G)p.r(G)p.r(A)p.r(A)p.r(C)p.r(A)p.d(T)p.d(T)}|RNA2{r(U)p.r(G)p.r(U)p.r(U)p.r(C)p.r(C)p.r(C)p.r(A)p.r(C)p.r(U)p.r(G)p.r(A)p.r(A)p.r(G)p.r(U)p.r(G)p.r(C)p.r(G)p.r(G)p.d(T)p.d(C)}$$$RNA1{StrandType:ss}|RNA2{StrandType:as}$	91.6%
RNA1{r(A)p.r(G)p.r(U)p.r(C)p.r(U)p.r(U)p.r(A)p.r(C)p.r(A)p.r(A)p.r(A)p.r(G)p.r(G)p.r(A)p.r(C)p.r(G)p.r(A)p.r(C)p.r(A)p.d(T)p.d(T)}|RNA2{r(U)p.r(G)p.r(U)p.r(C)p.r(G)p.r(U)p.r(C)p.r(C)p.r(U)p.r(U)p.r(U)p.r(G)p.r(U)p.r(A)p.r(A)p.r(G)p.r(A)p.r(C)p.r(U)p.d(G)p.d(A)}$$$RNA1{StrandType:ss}|RNA2{StrandType:as}$	98.7%
RNA1{r(U)p.r(C)p.r(U)p.r(G)p.r(U)p.r(G)p.r(A)p.r(U)p.r(G)p.r(U)p.r(A)p.r(C)p.r(C)p.r(C)p.r(U)p.r(A)p.r(C)p.r(C)p.r(U)p.d(T)p.d(T)}|RNA2{r(A)p.r(G)p.r(G)p.r(U)p.r(A)p.r(G)p.r(G)p.r(G)p.r(U)p.r(A)p.r(C)p.r(A)p.r(U)p.r(C)p.r(A)p.r(C)p.r(A)p.r(G)p.r(A)p.d(A)p.d(C)}$$$RNA1{StrandType:ss}|RNA2{StrandType:as}$	55.2%
RNA1{r(G)p.r(C)p.r(C)p.r(A)p.r(C)p.r(U)p.r(C)p.r(U)p.r(C)p.r(U)p.r(G)p.r(G)p.r(G)p.r(U)p.r(C)p.r(U)p.r(G)p.r(G)p.r(G)p.d(T)p.d(T)}|RNA2{r(C)p.r(C)p.r(C)p.r(A)p.r(G)p.r(A)p.r(C)p.r(C)p.r(C)p.r(A)p.r(G)p.r(A)p.r(G)p.r(A)p.r(G)p.r(U)p.r(G)p.r(G)p.r(C)p.d(C)p.d(A)}$$$RNA1{StrandType:ss}|RNA2{StrandType:as}$	63.3%
RNA1{r(G)p.r(C)p.r(C)p.r(U)p.r(U)p.r(U)p.r(G)p.r(C)p.r(A)p.r(C)p.r(C)p.r(G)p.r(G)p.r(G)p.r(G)p.r(C)p.r(C)p.r(A)p.r(G)p.d(T)p.d(T)}|RNA2{r(C)p.r(U)p.r(G)p.r(G)p.r(C)p.r(C)p.r(C)p.r(C)p.r(G)p.r(G)p.r(U)p.r(G)p.r(C)p.r(A)p.r(A)p.r(A)p.r(G)p.r(G)p.r(C)p.d(A)p.d(T)}$$$RNA1{StrandType:ss}|RNA2{StrandType:as}$	32.6%
RNA1{r(G)p.r(G)p.r(A)p.r(C)p.r(A)p.r(A)p.r(A)p.r(C)p.r(U)p.r(G)p.r(A)p.r(G)p.r(G)p.r(G)p.r(A)p.r(A)p.r(A)p.r(U)p.r(G)p.d(T)p.d(T)}|RNA2{r(C)p.r(A)p.r(U)p.r(U)p.r(U)p.r(C)p.r(C)p.r(C)p.r(U)p.r(C)p.r(A)p.r(G)p.r(U)p.r(U)p.r(U)p.r(G)p.r(U)p.r(C)p.r(C)p.d(A)p.d(C)}$$$RNA1{StrandType:ss}|RNA2{StrandType:as}$	83%
RNA1{r(C)p.r(U)p.r(G)p.r(A)p.r(G)p.r(G)p.r(G)p.r(A)p.r(A)p.r(A)p.r(U)p.r(G)p.r(C)p.r(A)p.r(G)p.r(A)p.r(A)p.r(G)p.r(U)p.d(T)p.d(T)}|RNA2{r(A)p.r(C)p.r(U)p.r(U)p.r(C)p.r(U)p.r(G)p.r(C)p.r(A)p.r(U)p.r(U)p.r(U)p.r(C)p.r(C)p.r(C)p.r(U)p.r(C)p.r(A)p.r(G)p.d(T)p.d(T)}$$$RNA1{StrandType:ss}|RNA2{StrandType:as}$	83.4%
RNA1{r(G)p.r(C)p.r(U)p.r(C)p.r(A)p.r(C)p.r(U)p.r(U)p.r(U)p.r(G)p.r(A)p.r(C)p.r(A)p.r(A)p.r(G)p.r(G)p.r(A)p.r(U)p.r(G)p.d(T)p.d(T)}|RNA2{r(C)p.r(A)p.r(U)p.r(C)p.r(C)p.r(U)p.r(U)p.r(G)p.r(U)p.r(C)p.r(A)p.r(A)p.r(A)p.r(G)p.r(U)p.r(G)p.r(A)p.r(G)p.r(C)p.d(A)p.d(T)}$$$RNA1{StrandType:ss}|RNA2{StrandType:as}$	102%
RNA1{r(G)p.r(U)p.r(U)p.r(G)p.r(C)p.r(A)p.r(G)p.r(A)p.r(A)p.r(U)p.r(U)p.r(C)p.r(U)p.r(C)p.r(A)p.r(C)p.r(U)p.r(A)p.r(A)p.d(T)p.d(T)}|RNA2{r(U)p.r(U)p.r(A)p.r(G)p.r(U)p.r(G)p.r(A)p.r(G)p.r(A)p.r(A)p.r(U)p.r(U)p.r(C)p.r(U)p.r(G)p.r(C)p.r(A)p.r(A)p.r(C)p.d(A)p.d(T)}$$$RNA1{StrandType:ss}|RNA2{StrandType:as}$	122%
RNA1{r(A)p.r(G)p.r(G)p.r(G)p.r(G)p.r(A)p.r(G)p.r(A)p.r(U)p.r(C)p.r(A)p.r(C)p.r(G)p.r(G)p.r(A)p.r(G)p.r(A)p.r(C)p.r(A)p.d(T)p.d(T)}|RNA2{r(U)p.r(G)p.r(U)p.r(C)p.r(U)p.r(C)p.r(C)p.r(G)p.r(U)p.r(G)p.r(A)p.r(U)p.r(C)p.r(U)p.r(C)p.r(C)p.r(C)p.r(C)p.r(U)p.d(T)p.d(G)}$$$RNA1{StrandType:ss}|RNA2{StrandType:as}$	102%
RNA1{r(U)p.r(G)p.r(G)p.r(A)p.r(C)p.r(G)p.r(G)p.r(A)p.r(U)p.r(G)p.r(G)p.r(U)p.r(G)p.r(A)p.r(G)p.r(G)p.r(A)p.r(C)p.r(U)p.d(T)p.d(T)}|RNA2{r(A)p.r(G)p.r(U)p.r(C)p.r(C)p.r(U)p.r(C)p.r(A)p.r(C)p.r(C)p.r(A)p.r(U)p.r(C)p.r(C)p.r(G)p.r(U)p.r(C)p.r(C)p.r(A)p.d(G)p.d(T)}$$$RNA1{StrandType:ss}|RNA2{StrandType:as}$	52.5%
